Reference: US8952060B2, “Composition for preventing hair loss or for stimulating hair growth” (Amorepacific Corporation, priority 2009, dated 2015)

How the values were obtained:
Assay type in all cases: in vivo
[1] = system: hair growth at depilated back portions of mice (C57BL/6); test: Hair growth and hair weight after oral administration in depilated mice; details: for hair growth as compared to the control (FIG. 2): 0.2 g/kg everyday for 5 weeks
Experimental: According to one embodiment, sodium valproate is administered orally to subjects and then tested for its effect for promoting hair growth. Seven week aged female mice (C57BL/6) are subjected to depilation at their back portions. Next, valproic acid is administered orally to mice of each test group everyday for 5 weeks. The control (mixed solution of distilled water, 1% methyl cellulose and 0.5% Tween 80™) and sodium valproate each are administered in a unit dose of 0.2 g/kg. After the administration, hair growth is observed at an interval of one week. After 5 weeks, hair weight after the depilation is measured.

[2] = system: hair growth at depilated back portions of mice (C57BL/6); test: Hair growth and hair weight after skin application in depilated mice
Experimental: According to one embodiment, sodium valproate is administered to subjects via external application to the skin and then tested for its effect for promoting hair growth. Seven week aged female mice (C57BL/6) are subjected to depilation at their back portions. Next, 7.2% sodium valproate is applied to the depilated back portions of mice of each test group twice per day. As a control, a mixed solution of propylene glycol/ethanol/water (5:3:2) is used. After the skin application, hair growth is observed at an interval of one week. After 6 weeks, hair weight after the depilation is measured.

[3] = system: hair growth at depilated back portions of mice (C57BL/6); test: Hair growth after subcutaneous injection in depilated mice; details: 3% solution, subcutaneous injection 50 μL every 3-4 days, seven times
Experimental: According to one embodiment, sodium valproate (VPA) is administered to subjects via subcutaneous injection and then tested for its effect for promoting hair growth. Seven week aged female mice (C57BL/6) are subjected to depilation at their back portions. Next, 3% sodium valproate solution is administered via subcutaneous injection to the left side of each depilated back portion in a unit dose of 50 μL at an interval of 3-4 days seven times in total. Then, the degree of hair growth is observed 1, 16 and 30 days after starting the test. In the test of FIG. 1, sodium valproate is injected subcutaneously to the left portion (marked by a circle) of the back of each mouse.

CCCC(CCC)C(=O)O [valproic acid, 2-propylpentanoic acid]
hair growth as compared to the control (FIG. 2) [1]: inhibits hair growth | hair growth, summary statement ([2]; transdermal administration (subcutaneous injection or skin application)): promotes hair growth

CCCC(CCC)C(=O)[O-].[Na+] [sodium valproate]
degree of hair growth as compared to the control (FIG. 1) ([3]; after 16 days, control = right side of back): hair growth is promoted | formation of new hair follicles (FIG. 1) ([3]; after 30 days): new hair follicles are formed | hair growth as compared to the control (FIG. 2) [1]: delays hair growth | hair weight (FIG. 3) ([1]; 0.2 g/kg everyday, after 5 weeks, control about 85 mg): 65 mg | hair growth as compared to the control (FIG. 4) ([2]; 7.2% skin application twice per day): promotes hair growth | hair weight (FIG. 5) ([2]; 7.2% skin application twice per day, after 6 weeks, control about 35 mg): ≥ 80 mg
